Results taken from patent US20200352906A1, “Heterobicyclic Carboxylic Acids for Treating Cancer or Inflammatory Diseases” (Shenzhen Ionova Life Science Co., Ltd., priority 2018, published 2020).

Key:
[1] = system: arthritis mice (AIA model); experiment: In vivo anti-inflammatory activity, AIA arthritis model
Protocol: Male Lewis Rates of 8-10 weeks old were fed with fixed amount of foods and free water at 20±2° C., under light in the 12-hour light and 12-hour darkness cycle and with the humidity of 45-70%. All mice were provided adjusted living for three days before they were used in test. 56 of such mice were divided into 7 groups with 8 mice in each group. One group was a control group and received only 1% CMCNa solution; one group was a model group and also received only 1% CMCNa solution; one group was a positive group and received Celecoxib at 18 mg/kg, and the other four groups received solutions of tested compound at the 1 mg/kg, 3 mg/kg, 10 mg/kg and […] dosages respectively.
1% CMC-Na was prepared with 1.00277 g of CMC-Na in 100 mL distilled water, heated with a 60° C. water bath until CMC-Na fully dissolved.
18 mg/kg Celecoxib capsule: 18.09 mg Celecoxib was placed into a grinder into which 10 mL 1% CMC-Na solution was added slowly. The mixture was ground until Celecoxib fully dissolved.
10 mg/kg C-003 solution: 10.08 mg of a tested compound (4-(1-{[2-Methyl-4-(4-trifluoromethyl-benzyl)-4H-thieno[3,2-b]pyrrole-3-carbonyl]-amino}-cyclopropyl)-benzoic acid diethanolamino salt, which is referred to hereinafter as INV-1120 diethanolamino salt) was added into a grinder, into which 10 mL 1% CMC-Na solution was slowly added until INV-1120 diethanolamino salt fully dissolved.
30 mg/kg INV-1120 solution: 30.3 mg of INV-1120 diethanolamino salt was added into a grinder, into which 10 mL 1% CMC-Na solution was slowly added until INV-1120 diethanolamino salt fully dissolved.
1 mg/kg INV-1120 was prepared by mixing 1.0 mL of 10 mg/kg INV-1120 diethanolamino salt solution with 9 mL 1% CMC-Na.
3 mg/kg INV-1120 was prepared by mixing 1.0 mL of 30 mg/kg INV-1120 diethanolamino salt solution with 9 mL 1% CMC-Na.
After the mice were subject to Anesthesia, they were cleaned with medical alcohol at their right feet. The mice in the control group were administered with 50 uL PBS, and the mice of the other groups were treated at the right feet with 50 uL CDA solution. One day before the establishment of the model, the basic size (volume) of each mice was measured, the date of the model establishment was D1, test compound was administered at 1 mL/100 g to the stomach starting on D13 daily for 12 days (ending on D24).
The mice were examined and photos were taken every three days for their water intakes, food intakes, and weights; every four days for their abilities to withstand weight at their rear feet; every three days for the swelling volumes and swelling thickness and temperatures of their feet, as well as their behaviors.

[2] = system: MC38 murine colon adenocarcinoma; experiment: In vivo pharmacodynamic test on subcutaneous murine colon adenocarcinoma (MC38); set-up: species or system mice; conditions: 60 mg/kg/day, after 15 days of treatment, p<0.0001 vs control
Protocol: All animal studies were reviewed and approved by the Animal Care and Use Committee of Beth Israel Deaconess Medical Center, Boston, Mass. Animals were housed at a maximum of 5 animals per cage in a pathogen-free facility with unlimited access to sterile water and chow. Daily welfare evaluations and animal sacrifices were carried out according to the Committee guidelines. MC38 mouse colon adenocarcinoma cells (Kerafast, Boston, Mass., USA) were cultured in DMEM that was supplemented with 10% FBS, 1% GPS, 0.1 mM nonessential amino acids (MilliporeSigma), 1 mM sodium pyruvate (MilliporeSigma), 10 mM Hepes (MilliporeSigma), and […] gentamycin sulfate (MilliporeSigma). Adherent cells were trypsinized, pelleted, counted by hemocytometer, and injected into mice at 1×10^6 cells/mL in PBS.
Cells were injected subcutaneously into the mid-dorsum of 6-week-old male C57BL/6 mice (The Jackson Laboratory, Bar Harbor, Me.) at 100 μL/mouse. Mice were systemically treated with Compound 1 (INV-1120, 60 mg/kg/day), anti-PD1 (200 ug Q 3 days), INV-1120 (60 mg/kg/day) and anti-PD1 (200 ug Q 3 days), or vehicle (0.45% methylcellulose) in a total volume of 100 μL via orally by gavage. Treatment initiated on day 10 post-tumor cell injection, when tumors reached approximately […] to 224 mm^3. Tumor size was measured by caliper (width^2×length×0.52=mm^3).

B16F10 melanoma = experiment: In vivo pharmacodynamic test on growth of B16F10 melanoma; set-up: species or system mice; conditions: 90 mg/kg/day, after 8 days of treatment, p<0.001 vs control
Protocol: B16F10 (1×10^6 cells) were injected subcutaneously into the mid-dorsum of 6-week-old male C57BL/6 mice (The Jackson Laboratory, Bar Harbor, Me.) at 100 μL/mouse. Mice were systemically treated with Compound 1 (INV-1120, 90 mg/kg/day), anti-PD1 (200 ug Q 3 days), INV-1120 (90 mg/kg/day) and anti-PD1 (200 ug Q 3 days), or vehicle (0.45% methylcellulose) in a total volume of 100 μL via orally by gavage. Treatment initiated on day 10 post-tumor cell injection, when tumors reached approximately 100 mm^3 to 116 mm^3. Tumor size was measured by caliper (width^2×length×0.52=mm^3).

Lewis lung carcinoma = experiment: In vivo pharmacodynamic test on growth of LLC (Lewis Lung Cancer); set-up: species or system mice; conditions: 90 mg/kg/day, after 9 days of treatment, p<0.01 vs control
Protocol: LLC (1×10^6 cells) were injected subcutaneously into the mid-dorsum of 6-week-old male C57BL/6 mice (The Jackson Laboratory, Bar Harbor, Me.) at 100 μL/mouse. Mice were systemically treated with INV-1120 (90 mg/kg/day), anti-PD1 (200 ug Q 3 days), INV-1120 (90 mg/kg/day) and anti-PD1 (200 ug Q 3 days), or vehicle (0.45% methylcellulose) in a total volume of 100 μL via orally by gavage. Treatment initiated when tumors reached approximately 249 mm^3 to 297 mm^3. Tumor size was measured by caliper (width^2×length×0.52=mm^3).

[3] = system: colon cancer CT26 transplanted tumor; experiment: In vivo pharmacodynamic test on growth of colon cancer CT26 transplanted tumor in mice
Protocol: CT26 tumor cell line was maintained in vitro as monolayer culture in RPMI-1640 Media supplemented with 10% heat inactivated fetal calf serum at 37° C. in an atmosphere of 5% CO2 in air. The tumor cells were routinely sub-cultured twice weekly by trypsin-EDTA treatment, not to exceed 4-5 passages. The cells growing in an exponential growth phase were harvested and counted for tumor inoculation.
Each mouse was inoculated subcutaneously on the right lower flank with the single cell suspension of 95% viable tumor cells (3×10^5) in 0.1 mL of serum-free RPMI 1640 Media for tumor development. Each mouse was administered with a test compound of this invention when mean tumor size reached approximately 100 mm^3. Each group consisted of 6 mice. The mice were randomized to different treatment groups as shown in the table under ‘Groups and Treatment’. The mice were lightly anesthetized before implantation. Care was taken to ensure subcutaneous delivery of cells by lifting up the fold of skin with sterilized forceps and injecting cells. Any tumors that completely or partially grew intradermally (ID) or intramuscularly (IM) were not used.
CT26 cells were maintained in RPMI 1640 medium supplemented with 10% FBS at 37° C. and 5% CO2 atmosphere. Cell detachment was obtained using standard trypsinization methods, quantification of cell numbers and viability information using the NC-200 automated cell counter. Compound 1 (INV-1121) was thoroughly suspended in 0.5% methyl cellulose (MC) by sonication at 4° C. for 15 min before oral administration (p.o.) to animals. BALB/c mice were injected subcutaneously (s.c.) with live 1×10^5 […]. Mice developed tumors of approximately 36 mm^3 in 5 days. CT26 tumor-bearing mice were randomized and mapped into 5 groups of 10 mice each: group A received vehicle (0.5% MC); group B received 0.1 mg/kg of Compound 1; group C received 1 mg/kg of Compound 1, group D received 25 mg/kg of Compound 1; and group E received 150 mg/kg of Compound 1. All treatments were give Compound 1 p.o. daily for 21 consecutive days. Tumor volumes and body weights were measured twice weekly. Study was terminated 27 days after tumor cell injection. Tumor volumes were expressed as mean: t SEM. Tumor volume differences among treated mouse groups on day 27 were analyzed by the one-way ANOVA followed by Tukey's test. P<0.05 values were considered significant.
For routine monitoring, all study animals were monitored not only tumor growth but also behavior such as mobility, food and water consumption (by cage side checking only), body weight (BW), eye/hair matting and any other abnormal effect. All mortality and/or abnormal clinical signs were recorded.
Body weights of all animals are measured twice/week throughout the study. The measurement dates will specify as study design. Body weight change, expressed in %, was calculated using the following formula:
BW change (%)=((BWDay X−BWDay 0)/BWDay 0)×100
The measurement of tumor size was conducted twice/week with a caliper and the tumor volume (mm3) will be estimated using the formula: TV=a×b 2/2, where “a” and “b” is long and short diameters of a tumor, respectively. The TVs were used for calculation of the tumor growth inhibition (TGI, an indicator of antitumor effectiveness) value using the formula: TGI=(1−T/C)×100%, where “T” and “C” is the mean relative volumes (% tumor growth) of the tumors in the treated and the control groups, respectively. The experiment was terminated when the mean tumor volume exceeded 2000 mm3 or severe body weight loss.

[4] = Example 6, studies as described in Example 5, compared with Example 5
[5] = vs animals without administration of tested compounds

Question: `Cc1sc2ccn(Cc3ccc(C(F)(F)F)cc3)c2c1C(=O)NC1(c2ccc(C(=O)O)cc2)CC1.NC(CO)(CO)CO` [4-(1-{[2-Methyl-4-(4-trifluoromethyl-benzyl)-4H-thieno[3,2-b]pyrrole-3-carbonyl]-amino}-cyclopropyl)-benzoic acid tris(hydroxymethyl)aminomethane salt] was tested. Which “balancing or coordination ability after treatment” value [1, 4] did it give?
Answer: better balancing or coordination ability

Question: What about the “reduction of swelling on the arthritis feet” value [1, 4] of the same compound?
Answer: even more effective reduction of swelling

Question: Which “temperatures of the feet” value ([1]; 1, 3, 10 and 40 mg/kg to the stomach daily D13-D24, FIG. 5) does the source give for `Cc1sc2ccn(Cc3ccc(C(F)(F)F)cc3)c2c1C(=O)NC1(c2ccc(C(=O)O)cc2)CC1.OCCNCCO` [INV-1120 diethanolamino salt, 4-(1-{[2-Methyl-4-(4-trifluoromethyl-benzyl)-4H-thieno[3,2-b]pyrrole-3-carbonyl]-amino}-cyclopropyl)-benzoic acid diethanolamino salt] here?
Answer: had effect in lowering the temperatures

Question: And the “swelling (volumes and thickness) of the feet” value ([1]; 1, 3, 10 and 40 mg/kg to the stomach daily D13-D24, FIG. 6)?
Answer: had effect in lowering the temperatures and swelling (both volumes and thickness)

Question: And the “behavior patterns (e.g., balancing capability)” value ([1]; mouse, in vivo)?
Answer: improved behavior patterns

Question: And the “ability to withstand weight (rear feet)” value [1, 5]?
Answer: greater weight gains and ability to withstand weight

Question: What about the weight gains [1, 5] of the same compound?
Answer: greater weight gains

Question: `Cc1sc2ccn(Cc3ccc(C(F)(F)F)cc3)c2c1C(=O)NC1(c2ccc(C(=O)O)cc2)CC1` [INV-1120, 4-(1-{[2-Methyl-4-(4-trifluoromethyl-benzyl)-4H-thieno[3,2-b]pyrrole-3-carbonyl]-amino}-cyclopropyl)-benzoic acid] was tested. Which “inhibition of primary tumor growth vs control” value [2] did it give?
Answer: inhibited primary MC38 murine colon adenocarcinoma

Question: What about the “inhibition of primary melanoma growth vs control” value (B16F10 melanoma) of the same compound?
Answer: inhibited primary 16F10 melanoma growth

Question: And the “inhibition of primary Lewis lung carcinoma growth vs control” value (Lewis lung carcinoma)?
Answer: inhibited primary Lewis lung carcinoma growth

Question: Which tumor growth inhibition ([3]; 0.1 mg/kg p.o. daily) does the source give for `O=C(O)c1ccc(C2(NC(=O)c3csc4ccn(Cc5ccc(C(F)(F)F)cc5)c34)CC2)cc1` [INV-1121] here?
Answer: some inhibition was observed, but without statistical significance

Question: And the tumor growth inhibition ([3]; 1.0 mg/kg p.o. daily)?
Answer: some inhibition was observed, but without statistical significance

Question: What about the anti-tumor activity ([3]; 25 mg/kg p.o. daily) of the same compound?
Answer: significant and comparable anti-tumor activity

Question: What about the anti-tumor activity ([3]; 150 Mg/kg p.o. daily) of the same compound?
Answer: significant and comparable anti-tumor activity

Question: And the “gross toxicity judged from animal body weight and overall animal behavior” value ([3]; all doses tested, 0.1-150 mg/kg p.o. daily)?
Answer: None of the doses tested showed gross toxicity

Question: What about the “tumor growth inhibition, dose dependence” value ([3]; daily oral administration, range 0.1 mg/kg-150 mg/kg, 21 consecutive days, FIG. 1) of the same compound?
Answer: inhibited the tumor growth in a dose-dependent manner
